Values of other authors as cited in patent US20240115678A1, “PERSONALIZED […] CANCER THERAPY” (priority 2022, published 2024).

Tests used:
[1] = tested on: human xenografted glioma, overian, and neuroblastoma cells; conditions: immune deficient animals
[2] = tested on: battery of tumor cell lines; conditions: in vitro, combined with AA
[3] = tested on: neuroblastoma, bladder cancer, pancreatic cancer, mesothelioma, hepatoma cells; conditions: in vitro
[4] = tested on: hypoxia inducible factor (HIF)-1
vascular cord formation = conditions: in vivo administration
[5] = tested on: T cell, B cell and NK cells; conditions: high dose
[6] = tested on: rat PAIII androgen-independent syngeneic prostate cancer cell line; conditions: daily intraperitoneal for 30 days, evaluation at day 40
S-180 sarcoma = conditions: parenteral administration
HUVEC = conditions: in vitro
[7] = tested on: monocytes derived from human peripheral blood
[8] = tested on: murine TECs and normal ECs; conditions: with up-regulation of MDR1 mRNA
NK cells = conditions: animal experiments
ovarian cancer = conditions: whole trial

O=C1O[C@H]([C@@H](O)CO)C(O)=C1O [AA, ascorbic acid]
inhibition of xenografted cells [1]: successful in vivo inhibition
neovascularization (neovascularization): suppressing neovascularization
cytotoxicity of Docetaxel, Epirubicin, Irinotecan and 5-FU [2]: Enhancement of cytotoxicity
cytotoxic effects on cancer cells [3]: cytotoxic effects at pharmacologically achievable concentrations
activation of HIF-1 [4]: suppresses activation
vascular cord formation (vascular cord formation): suppressed vascular cord formation
NK cytotoxic activity [5]: inhibits
IL-2 secretion ([5]; in vitro): inhibits
T cell and B cell proliferative responses ([5]; in vitro): inhibits
pulmonary and lymphatic metastasis [6]: reduction in pulmonary and lymphatic metastasis
tumor growth [6]: significant inhibition of tumor growth
angiogenesis and pro-angiogenic factors bFGF, VEGF, and MMP-2 (S-180 sarcoma): suppression
tumor growth (S-180 sarcoma): reduced tumor growth
T cell activating ability of dendritic cells (dendritic cells): inhibit
HUVEC proliferation (HUVEC): inhibits

COc1cc2nccc(Oc3ccc(NC(=O)Nc4ccc(F)cc4F)c(F)c3)c2cc1OC [Ki8751]
tumor CM-induced MDR1 up-regulation (human microvascular ECs): blocked

CCOCc1nc2c(N)nc3ccccc3c2n1CC(C)(C)O [R-848]
FcgammaRI, FcgammaRIIa, and the common gamma-subunit [7]: upregulation
inhibitory FcgammaRIIb molecule [7]: profound downregulation
FcgammaR-mediated cytokine production ([7]; 12 hour exposure): increased
antibody-dependent cellular cytotoxicity by monocytes ([7]; 12 hour exposure): increased

O=P1(N(CCCl)CCCl)NCCCO1 (stereo not drawn) [cyclophosphamide]
effect on Treg cells (Treg cells): inhibit Treg cells

Nc1ccn([C@@H]2O[C@H](CO)[C@@H](O)C2(F)F)c(=O)n1 [gemcitabine]
effect on Treg cells (Treg cells): inhibit Treg cells

CC(=O)O[C@H]1C(=O)[C@@]2(C)[C@H]([C@H](OC(=O)c3ccccc3)[C@]3(O)C[C@H](OC(=O)[C@H](O)[C@@H](NC(=O)c4ccccc4)c4ccccc4)C(C)=C1C3(C)C)[C@]1(OC(C)=O)CO[C@@H]1C[C@@H]2O [paclitaxel]
resistance of TECs compared with normal ECs [8]: more resistant

CC(C)[C@]12O[C@H]1[C@@H]1O[C@]13[C@]1(O[C@H]1C[C@H]1C4=C(CC[C@@]13C)C(=O)OC4)[C@@H]2O [triptolide]
effect on Treg cells (Treg cells): inhibit Treg cells

Poly (IC)
effect on Herceptin activity (NK cells): augmentation of Herceptin activity

arsenic trioxide
effect on Treg cells (Treg cells): inhibit Treg cells

bevacizumab plus chemotherapy: Bevacizumab (Avastin), antibody which binds VEGF, given with chemotherapy
median progression free survival (PFS) (ovarian cancer; ovarian cancer patients): 6.8 months
median OS (ovarian cancer): 16.6 months
HR for overall survival (ovarian cancer; versus chemotherapy alone, 95 percent CI: 0.69, 1.14): 0.89

B1: IL-12: stimulator of NK cells (protein, UniProt P29459 23-219; P29460 23-328, looked up)
Interleukin-12 subunit alpha: RNLPVATPDPGMFPCLHHSQNLLRAVSNMLQKARQTLEFYPCTSEEIDHEDITKDKTSTVEACLPLELTKNESCLNSRETSFITNGSCLASRKTSFMMALCLSSIYEDLKMYQVEFKTMNAKLLMDPKRQIFLDQNMLAVIDELMQALNFNSETVPQKSSLEEPDFYKTKIKLCILLHAFRIRAVTIDRVMSYLNAS
Interleukin-12 subunit beta: IWELKKDVYVVELDWYPDAPGEMVVLTCDTPEEDGITWTLDQSSEVLGSGKTLTIQVKEFGDAGQYTCHKGGEVLSHSLLLLHKKEDGIWSTDILKDQKEPKNKTFLRCEAKNYSGRFTCWWLTTISTDLTFSVKSSRGSSDPQGVTCGAATLSAERVRGDNKEYEYSVECQEDSACPAAEESLPIEVMVDAVHKLKYENYTSSFFIRDIIKPDPPKNLQLKPLKNSRQVEVSWEYPDTWSTPHSYFSLTFCVQVQGKSKREKKDRVFTDKTSATVICRKNASISVRAQDRYYSSSWSEWASVPCS
effect on Herceptin activity (NK cells): augmentation of Herceptin activity
